Results published in patent publication US8524277B2, “Extended release dosage form” (Alza Corporation, priority 1998, dated 2013).

Assay type: physicochemical
Excerpt: Hydrophilic materials for use in forming the interior wall which have solubilities sensitive to osmotic pressure or to ionic strength can be screened experimentally prior to formulating them within the interior wall. This procedure involves forming an aqueous solution of the candidate hydrophilic materials using distilled water as the solvent. Then, the resulting solution is cast onto a smooth inert surface, such as a glass plate, and allowed to dry to a film. The film is then removed and cut into sections of known area, thickness, and weight. The resulting film samples are then placed in a series of reference solutions of various osmotic pressures or ionic strengths with mild stirring. The time required for the film to dissolve, t, is then measured as a function of osmotic pressure or ionic strength. Then, given the known values of initial film thickness, hi, the dissolution rate of the film, dh/dt, can be calculated according to Equation 5. […]
The solubility of various hydrophilic materials to osmotic pressure was evaluated. […] Thicknesses of the discs were measured with a table micrometer. […] The time to dissolution was then monitored for each sample. Dissolution rate was calculated according to Equation 5 and plotted as a function of osmotic pressure for each molecular weight. […]

With hydroxypropylcellulose [Klucel EF] the “osmotic pressure at which the film is insoluble” value was “above 30 atmospheres” and the “osmotic pressure at which the film is soluble” value was 0-30 atmospheres.
